One assay is filed under the species Homo sapiens. In words: Binding affinity to F1F0-ATP synthase subunit C (unknown origin) measured by cellular thermal shift assay (CETSA).
Assay [1] deals with AC16 [Human hybrid]. Put plainly: Inhibition of PTPC in human AC16 cells at 1 uM measured by calcein-cobalt assay relative to control. Format: cell-based.
In assay [2] the test system is AC16 [Human hybrid]. In words: Activation of PTPC in human AC16 cells at 1 uM measured by calcein-cobalt assay relative to control. Format: cell-based.

This passage reports Activity and inhibition results from ChEMBL document CHEMBL5113424, “Identification of small-molecule urea derivatives as PTPC modulators targeting the c subunit of F1/Fo-ATP synthase” (Bioorg Med Chem Lett, 2022).

What is called inhibition is the change of the read-out against control, counted positive when it falls.

Calls of active or inactive are those of the source. The rule behind the calls is not given here.

Take `O=C(NC1CCCCC1)NC1CCCCC1`: the outcome in the assay listed under Homo sapiens was Active. For the same compound, in the assay with AC16 [Human hybrid] [1], the inhibition is 28%.

As to `C(=NC1CCCCC1)=NC1CCCCC1`, the inhibition result in the assay on AC16 [Human hybrid] [1] is “Active”.

In the case of `S=C(NCc1ccccc1)NCc1ccccc1`, the inhibition in the assay with AC16 [Human hybrid] [2] is 37.2%.

For `O=C(NC1CC1)NC1CC1`, in the assay on AC16 [Human hybrid] [1], the inhibition was 3.87%.

Turning to `CC(C)(C)OC(=O)NC1CCCCC1`, in the assay with AC16 [Human hybrid] [2] (filed as activator), the inhibition was 42.5%.

`S=C(NC1CCCCC1)NC1CCCCC1`: the inhibition with AC16 [Human hybrid] [2] is 32.4%.

Consider `CCOC(=O)c1ccc(NC(=O)Nc2ccc(C(=O)OCC)cc2)cc1`, for which, in the assay with AC16 [Human hybrid] [1], the inhibition was 9.75%.

Consider `S=C(Nc1ccccc1)NC1CCCCC1`, for which, in the assay with AC16 [Human hybrid] [2], the inhibition was 3%.

As to `N#Cc1ccc(NC(=O)Nc2ccc(C#N)cc2)cc1`, the inhibition with AC16 [Human hybrid] [1] is 25.4%.

In the case of `COc1ccc(NC(=O)Nc2ccc(OC)cc2)cc1`, the inhibition in the assay on AC16 [Human hybrid] [2] (filed as activator) is 53.6%.

Consider `COc1ccc(NC(=O)Nc2ccccc2)cc1`, for which the inhibition in the assay on AC16 [Human hybrid] [1] is 4.6%.

Turning to `O=C(Nc1ccccc1)Nc1ccccc1`, the inhibition with AC16 [Human hybrid] [1] was 28.1%.

Take `CC(C)(C)NC(=O)NC1CCCCC1`: the inhibition in the assay with AC16 [Human hybrid] [1] is 43.2%.

As to `O=C(NC1CCCC1)NC1CCCC1`, the inhibition in the assay with AC16 [Human hybrid] [1] was 16.4%.

With `O=C(NCc1ccccc1)NCc1ccccc1`, the inhibition in the assay on AC16 [Human hybrid] [2] was 30.4%.
